Experiments:
[1] = test system: human NSCLC A549-A2 tumor cells; experiment: Adoptive transfer of preincubated NK cells in A549-A2 experimental metastasis model; assay type: in vivo, athymic nude mice; conditions: CTX 200 mg/kg ip days 14, 21; NK cells preincubated with the protein iv days 16, 22 (CTX group: no NK cells)
[2] = test system: HT29 (p53+/HLA-A2.1-) tumors; experiment: HT29 xenograft tumor growth in nude mice; assay type: in vivo; conditions: not shown
Description: (§1) The tumor lines used in this study were MBA-MD-231 (p53+/HLA-A2.1+), PANC1 (p53+/HLA-A2.1+), AsPC1(p53-/HLA-A2.1-) and HT29 (p53+/HLA-A2.1-). […] J. Immunol. 176:3223. Primary tumors derived from these cells were established in nude mice following subcutaneous injection. Mice were then treated as previously described with 264scTCR/IL-2, rhIL-2 or PBS and tumor volumes were measured.

[3] = test system: human A375 cell line tumors; experiment: A375 primary tumor growth model in nude mice
[4] = test system: p53+/HLA-A2.1+ MDA-MB-231 tumor cells; experiment: MDA-MB-231 xenograft tumor growth in nude mice; assay type: in vivo; conditions: compared to PBS; 9 doses i.v.
[5] = test system: immune cells (splenocytes, lymph nodes, bone marrow); experiment: In vivo activation of immune cells in A375 tumor-bearing nude mice
From the text: FIG. 19A and FIG. 19B depict in vivo activation of immune cells in mice following scTCR/IL-2 treatment. […] Splenocytes were isolated at the indicated times and analyzed by flow cytometry for expression of CD25, CD122 or pan-NK markers. The plots indicate the percentage of CD25, CD122 or pan-NK-positive staining (dark line) compared with splenocyte staining with an isotype control mAb (red line).
The effect of the scTCR/IL-2 fusion proteins on immune cells was also investigated in vivo. […] Changes in IL-2R subunit expression were also assessed in immune cells isolated from the spleens, lymph nodes and bone marrow of 264scTCR/IL-2- or MART-1scTCR/IL-2-treated mice.

CD45R+ cells in tumors = experiment: Immune cell infiltration into tumors (CD45R immunohistochemistry); assay type: in vivo, nude mice
[6] = test system: p53-/HLA-A2.1- AsPC1 tumor cells; experiment: AsPC1 xenograft tumor growth in nude mice; assay type: in vivo; conditions: 9 doses i.v.
Description: as §1

A375 tumors = experiment: Tumor infiltration of adoptively transferred splenocytes pre-coated with scTCR/IL-2; assay type: in vivo, nude mice; conditions: 24 hrs after transfer of pre-coated splenocytes
Description: FIG. 28 depicts targeted tumor infiltration of adoptively transferred splenocytes pre-coated with scTCR/IL-2. […] Boxes, interquartile range of distribution (25th-75th percentile); line within box, median; whisker, 5th-[…]. *, P<0.0001; **, P<0.0001. At least three tumors per group and 10 fields per tumor were analyzed.
The activated splenocytes were isolated and incubated with the respective scTCR/IL-2 fusion proteins in vitro to coat the surface of the cells prior to transfer into A375 tumor bearing nude mouse recipients. Tumors were then isolated 24 hrs later and levels of CD45R+NK cells were assessed.

YAC-1 target cells = experiment: Lytic activity of stimulated nude mouse splenocytes (calcein release); assay type: cell-based; conditions: four days in equivalent molar amounts; YAC-1 targets
[7] = test system: p53+/HLA-A2.1+ PANC1 tumor cells; experiment: PANC1 xenograft tumor growth in nude mice; assay type: in vivo; conditions: 9 doses i.v.
Description: as §1

[8] = test system: p53 (aa 264-272) peptide-loaded T2 cells and CTLL-2 cells; experiment: Cell-cell conjugation assay (flow cytometry); assay type: cell-based, human T2 cells, mouse CTLL-2 cells
Description: FIG. 20A, FIG. 20B, FIG. 20C, and FIG. 20D depict in vitro conjugation of IL-2 receptor-bearing immune cells with antigen presenting target cells mediated by scTCR/IL-2 fusion protein. T2 cells were loaded with either p53 (aa 264-272) or p53 (aa 149-157) (control) peptides and then labeled with HE. CTLL-2 cells were labeled with calcein AM. Labeled cells were mixed and incubated in the presence or absence of 264scTCR/IL-2 fusion protein and the samples were analyzed by flow cytometry. Assay conditions including loading peptide used and presence or absence of fusion protein are indicated beneath each histogram. Single stained regions are marked 1 and 3 and the double stained cell poplulation is marked 2.
In this experiment, T2 cells pulsed with either the 149 or 264 peptide. CTLL-2 cells were hydrodiethidium (HE) labeled and incubated for 20 minutes at RT with an equal number of calcein-AM labeled T2 cells pulsed with either 50 μg of 149 or 264 peptide. […] In contrast, conjugate formation was not observed with the mixture that included the 149 peptide pulsed T2 cells (B; 0.88%). Cell samples were washed one time before analysis on the flow cytometer.
Samples were analyzed by flow cytometry. […] Thus, the scTCR/IL-2 fusion protein could be useful in a therapeutic approach for bringing together immune effector cells and tumor cells and stimulating immune cell-mediated activity against the tumor.

Molecule: O=P1(N(CCCl)CCCl)NCCCO1 (centres unmarked) [CTX, cyclophosphamide, reference compound]
- Median survival [1]: 52 days

Molecule: 264scTCR/IL-2: soluble three domain single-chain TCR specific to human p53 (aa 264-272)/HLA-A2.1 linked to human IL-2 via a peptide linker
- tumor growth [2]: tumor outgrowth was not inhibited
- mice that developed tumors ([3]; 3 μg dose, 9 doses): all of the mice developed tumors
- average tumor size ([3]; 3 μg dose, 9 doses, vs PBS): significantly smaller than that of the PBS treated mice
- A375 tumor growth compared to PBS ([3]; 0.5 mg/kg i.v., four daily injections, 10-day rest, four more): potent antitumor activity
- mice that developed tumors ([3]; 0.5 mg/kg/dose, 9 doses): six of the eight
- tumor weight at the end of the study ([3]; 1.6 mg/kg and 0.5 mg/kg doses vs rhIL-2 0.4 mg/kg): significantly more effective at reducing tumor burden than the high dose of rhIL-2
- mice that developed tumors ([3]; 1.6 mg/kg i.v., 9 doses, tumors established three days): 50%
- mice that developed tumors ([3]; 1.6 mg/kg/dose, 9 doses): four of the eight
- tumor growth ([3]; 0.5 or 0.2 mg/kg, four daily injections, 10-day rest, four more, compared with 0.125 mg/kg rhIL-2): significantly inhibited tumor growth
- tumor growth following two dosing cycles ([3]; 264scTCR/IL-2 0.5 mg/kg daily x4 per cycle, rhIL-2 0.4 mg/kg every 8 hrs for five days per cycle): inhibited tumor growth to a similar degree
- growth of well-established tumors ([3]; tumors grown to 75 or 200 mm^3, 9 doses i.v.): marked inhibition of tumor growth and partial to complete regression of tumors in most mice
- tumor growth [4]: significant antitumor effect
- NK cells ([5]; repeated administration): treatment-dependent increase in NK cells
- lymph nodes and spleens ([5]; repeated daily i.v. 32 μg/dose): enlargement of lymph nodes and spleens
- serum IFN-γ levels ([5]; repeated daily i.v. 32 μg/dose): increase in serum IFN-γ levels
- expression of CD122 and CD25 in cells from lymph nodes and bone marrow ([5]; repeated daily treatment): Elevated expression
- Splenocytes expressing IL-2Rα (CD25) or IL-2≈ (CD122) ([5]; repeated daily treatments, peak one day after fourth treatment): increased approximately three-fold
- CD45R-positive cells in A375 tumors (CD45R+ cells in tumors; A375 (p53+/HLA.A2.1+) tumor sections): Complete tumor infiltration of large CD45R+ cells
- CD45R+ cell infiltration (CD45R+ cells in tumors; A375 tumors, 10 μg/dose, four days of daily treatment): 14.5 CD45R+ cells/field of view
- CD45R-positive cells in AsPC1 tumors (CD45R+ cells in tumors; AsPC1 (p53-/HLA-A2.1-) tumor sections): no differences were observed between treatment groups
- tumor growth [6]: tumor outgrowth was not inhibited
- cells bound with fusion protein infiltrating into tumors (A375 tumors): 3.0 BF1+ cells/field of view
- infiltration of CD45R+ cells (A375 tumors): 10.3 CD45R+ cells/field of view
- lytic activity of stimulated mouse splenocytes (YAC-1 target cells): Equivalent levels of lytic activity
- tumor growth [7]: significant antitumor effects
- conjugated (double stained) cells, share of total population ([8]; 149 control peptide-loaded T2 cells + CTLL-2 cells, fusion protein present (or fusion protein absent)): approximately 0.9%
- conjugated (double stained) cells, share of total population ([8]; 149 control peptide-loaded T2 cells + CTLL-2 cells, fusion protein present (or fusion protein absent), listed as 264 scTCR-IL-2): 0.88%
- conjugated (double stained) cells, share of total population ([8]; 264 peptide-loaded T2 cells + CTLL-2 cells, fusion protein present (1 μg)): 3.25%
